{"source": "PubChem BioAssay AID2387", "about": "(Broad Institute, 2010)", "note": "Calls of active or inactive are those of the source.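 Rule for the calls: active = fitted EC50 no more than tenfold above the highest tested concentration; inconclusive = flat fit with 30 to 70% signal loss, or poor fit; inactive = the rest.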"}
{"tested_on": "Candida albicans CaCi-2 growth (no fluconazole), Alamar Blue", "assay": "intrinsic antifungal toxicity in Candida, azole-free – CaCi-2 strain, Alamar Blue fluorescence, counter-screen for fluconazole resistance reversal project, dose response (AID 2387)", "details": "C. albicans CaCi-2 (fluconazole-resistant clinical isolate) growth without fluconazole, 48 h"}
{"smiles": "O=C(Nc1nc2ccc(SC(F)F)cc2s1)c1ccc(NS(=O)(=O)c2ccc(F)c(F)c2)cc1", "EC50": "> 15 µM (inactive)"}
{"smiles": "CCc1cc(=S)n2c([nH]c3ccccc32)c1C#N", "EC50": "> 15 µM (inactive)"}
{"smiles": "Cc1ccc(Nc2nc(N)c([N+](=O)[O-])c(N3CCC(C)CC3)n2)cc1C", "EC50": "> 15 µM (inactive)"}
{"smiles": "C[C@]12CCC3[C@@H](CC[C@H]4C[C@@H](O)CC[C@]34C)C1CCC2=O", "note": "(stereo not given in full)", "EC50": "> 15 µM (inactive)"}
{"smiles": "O=C(CNc1ccc2ccccc2c1)N/N=C/c1ccc([N+](=O)[O-])o1", "EC50": "> 16 µM (inactive)"}
{"smiles": "Clc1ccc(CONc2ncnc3nonc23)c(Cl)c1", "EC50": "> 16 µM (inactive)"}
{"smiles": "COC(=O)c1ccc(COc2ccc(/C=C(\\C#N)c3nc4ccccc4[nH]3)cc2OC)o1", "EC50": "> 16 µM (inactive)"}
{"smiles": "N/C(Cc1ccccc1)=N\\OC(=O)c1cccc2ccccc12", "EC50": "> 15 µM (inactive)"}
{"smiles": "CCCCOc1cccc(C2C(C(=O)c3ccc(C)o3)=C(O)C(=O)N2Cc2ccco2)c1", "note": "(stereo not given)", "EC50": "> 15 µM (inactive)"}
{"smiles": "CN1/C(=C/C(=O)c2cccs2)Sc2ccccc21", "EC50": "> 15 µM (inactive)"}
{"smiles": "COc1cccc(/C=N/Nc2ncnc3scc(-c4ccccc4)c23)c1O", "EC50": "6.58 µM"}
{"smiles": "CCCC(=O)NC(c1cccs1)c1cc(Cl)c2cccnc2c1O", "note": "(stereo not given)", "EC50": "12 µM"}
{"smiles": "CCCC(=O)NC(c1ccco1)c1cc([N+](=O)[O-])c2cccnc2c1O", "note": "(stereo not given)", "EC50": "> 15 µM (inactive)"}
{"smiles": "Cc1ccc(NC(=O)c2ccccc2NS(=O)(=O)c2ccc(Cl)s2)cc1", "EC50": "> 15 µM (inactive)"}
{"smiles": "CC(C)(C)c1ccc(Cc2n[nH]c(=S)[nH]c2=O)cc1", "EC50": "> 16 µM (inactive)"}
{"smiles": "CCCOc1ccc(C(=O)NNC(=S)NC(C)=O)cc1", "EC50": "> 16 µM (inactive)"}
{"smiles": "CCCC(=O)NC(c1ccc(OC)cc1)c1ccc2cccnc2c1O", "note": "(stereo not given)", "EC50": "> 16 µM (inactive)"}
{"smiles": "COc1ccc(-n2nc(C(=O)NCC(=O)N3CCN(c4ccc(F)cc4)CC3)c3ccccc3c2=O)c(OC)c1", "EC50": "> 15 µM (inactive)"}
{"smiles": "CCC(=O)NC(c1cccs1)c1cc([N+](=O)[O-])c2cccnc2c1O", "note": "(stereo not given)", "EC50": "> 15 µM (inactive)"}
{"smiles": "CC(=O)c1sc(NC(=O)CCS(=O)(=O)c2ccccc2)nc1C", "EC50": "> 15 µM (inactive)"}
{"smiles": "Cc1ccc(NC(=O)c2sc3nc(N)c(C#N)cc3c2N)cc1", "EC50": "> 15 µM (inactive)"}
{"smiles": "N#Cc1cc(C#N)c(N2CCN(c3cccc(Cl)n3)CC2)nc1N", "EC50": "> 15 µM (inactive)"}
{"smiles": "CCc1nnc(NC(=O)CN2CCN(c3nc(-c4ccccc4)cs3)CC2)s1", "EC50": "> 15 µM (inactive)"}
{"smiles": "O=C(Nc1nnc(-c2ccco2)o1)c1cccc(Cl)c1", "EC50": "> 15 µM (inactive)"}
{"smiles": "CCOc1ccc(NC(=O)c2cn(-c3ccc(OCC)cc3)c(=O)c3cc(OC)c(OC)cc23)cc1", "EC50": "> 16 µM (inactive)"}
{"smiles": "CCCC(=O)NC(c1ccc(Cl)cc1)c1ccc2cccnc2c1O", "note": "(stereo not given)", "EC50": "16.1 µM"}
{"smiles": "Cc1nc2ccccc2cc1OCc1ccc(F)cc1", "EC50": "> 16 µM (inactive)"}
{"smiles": "Cc1cc(C)cc(OCC(=O)NNC(=S)NC(=O)C2CC2)c1", "EC50": "> 15 µM (inactive)"}
{"smiles": "Oc1c(Br)cc(Br)cc1/C=N/Nc1ccc(Cl)nn1", "EC50": "> 16 µM (inactive)"}
{"smiles": "O=C(NCc1cc([N+](=O)[O-])ccc1O)c1cccnc1Sc1ccccc1Cl", "EC50": "> 15 µM (inactive)"}
{"smiles": "O=C(Nc1nnc(-c2ccco2)o1)c1ccc(Cl)cc1", "EC50": "> 15 µM (inactive)"}
{"smiles": "Clc1ccccc1C(c1ccccc1)(c1ccccc1)n1ccnc1", "EC50": "1.58 µM"}
{"smiles": "CCN(CC)S(=O)(=O)c1cc(OC)ccc1N=Nc1ccc(O)c2ncccc12", "EC50": "6.91 µM"}
{"smiles": "Cc1ccccc1/C=C1\\SC(=S)N(/N=C/c2cc([N+](=O)[O-])ccc2O)C1=O", "EC50": "> 16 µM (inactive)"}
{"smiles": "O=C(Nc1nnc(C2COc3ccccc3O2)o1)c1ccc(F)cc1", "note": "(stereo not given)", "EC50": "> 15 µM (inactive)"}
{"smiles": "Cc1ccnc(Sc2ccc([N+](=O)[O-])cc2[N+](=O)[O-])n1", "EC50": "> 15 µM (inactive)"}
{"smiles": "COc1cccc(-c2nc(NC(C)C)c3ccccc3n2)c1O", "EC50": "> 16 µM (inactive)"}
{"smiles": "CCCOc1ccc(C(=O)NNC(=S)NC(=O)CC)cc1", "EC50": "> 15 µM (inactive)"}
{"smiles": "Cc1ccc(C)c(-c2nnc(NC(=O)c3ccco3)o2)c1", "EC50": "> 16 µM (inactive)"}
{"smiles": "Cc1ccc2ccc3ccc(C)nc3c2n1", "EC50": "> 15 µM (inactive)"}
